From ChEMBL document CHEMBL1122684, “The 3,4-catechol derivative of propranolol, a minor dihydroxylated metabolite” (J Med Chem, 1984)
Structures can show the parent of a compound that is named as a salt.

Assays:
[1] = target: Beta-1 adrenergic receptor (Cavia porcellus, UniProt B0FL73); assay: Compound was evaluated for competitive antagonism of beta-1 adrenergic receptor in guinea pig atria measured as pA2 (-log KB); assay type: functional; conditions: read-out: pA2 (converted)
[2] = target: Beta-2 adrenergic receptor (Rattus norvegicus) (UniProt P10608); assay: Compound was evaluated for competitive antagonism of beta-2 adrenergic receptor in rat uterus measured as pA2 (-log KB)
Chain of Beta-2 adrenergic receptor (Rattus norvegicus) (P10608 whole entry, looked up): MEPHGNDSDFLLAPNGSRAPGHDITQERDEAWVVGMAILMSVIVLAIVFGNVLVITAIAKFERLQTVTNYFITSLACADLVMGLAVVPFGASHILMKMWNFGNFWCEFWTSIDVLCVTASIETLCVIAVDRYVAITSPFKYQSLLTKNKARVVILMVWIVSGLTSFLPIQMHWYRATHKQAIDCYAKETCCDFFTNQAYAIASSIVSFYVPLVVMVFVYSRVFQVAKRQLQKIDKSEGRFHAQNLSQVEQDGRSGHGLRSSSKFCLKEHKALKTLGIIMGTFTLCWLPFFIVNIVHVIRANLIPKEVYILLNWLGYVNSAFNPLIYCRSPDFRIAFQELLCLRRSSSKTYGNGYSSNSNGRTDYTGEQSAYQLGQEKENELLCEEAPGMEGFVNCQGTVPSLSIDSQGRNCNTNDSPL

Chain of Beta-1 adrenergic receptor (B0FL73 whole entry): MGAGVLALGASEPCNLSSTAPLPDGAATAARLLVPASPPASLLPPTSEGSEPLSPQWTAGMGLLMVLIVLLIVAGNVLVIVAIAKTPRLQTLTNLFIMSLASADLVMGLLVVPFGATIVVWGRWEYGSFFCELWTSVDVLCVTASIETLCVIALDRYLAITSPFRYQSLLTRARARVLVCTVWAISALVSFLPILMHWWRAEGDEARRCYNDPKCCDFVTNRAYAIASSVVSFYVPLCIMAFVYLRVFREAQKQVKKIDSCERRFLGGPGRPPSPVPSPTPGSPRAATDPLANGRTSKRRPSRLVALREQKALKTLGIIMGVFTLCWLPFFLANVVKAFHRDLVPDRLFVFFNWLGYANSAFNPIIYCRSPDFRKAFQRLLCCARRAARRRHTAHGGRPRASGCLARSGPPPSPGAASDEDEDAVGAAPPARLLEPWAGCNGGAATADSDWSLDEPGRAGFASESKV

Kb [1] [nM]	Kb [2] [nM]	SMILES
50.1	29.5	CC(C)NCC(O)COC1=CC(=O)C(=O)c2ccccc21 (centres undefined)
5.75	2.4	CC(C)NCC(O)COc1ccc(O)c2ccccc12 (centres undefined) [4-HYDROXYPROPRANOLOL SULFATE]
